Results published in article PMC6359749, “Lignans from the Twigs of Litsea cubeba and Their Bioactivities” (Molecules, 2019).
pIC50: −log10 of the molar value.

What was measured:
[1] = test system: human colon cancer (HCT-116) cell line; assay: Cytotoxicity assay (MTT), HCT-116; format: cell-based; conditions: 24 h treatment
Experimental: (§1) The cytotoxic activity was determined against human colon cancer (HCT-116), human non-small-cell lung carcinoma (NCI-H1650), and human ovarian cancer (A2780) cell lines which were bought from the Cell Bank of Shanghai Institute of Cell Biology (Chinese Academy of Sciences) and originally obtained from the American Type Culture Collection (ATCC, Rockville, MD, USA). Cells were grown in RPMI 1640 (GIBCO, New York, NY, USA) supplemented with 10% fetal calf serum (Life Technologies, Carlsbad, CA, USA), penicillin G (100 U/mL), and streptomycin (100 μg/mL) at 37 °C in a 5% CO2 and seeded in 96-well plates (CLS3635, Corning®, Sigma, Santa Clara, CA, USA) at a cell density of 3000 per well over night, and then were treated with various diluted concentrations (each concentration was arranged triple) of compounds 1–19, which were prepared with DMSO (Sigma) to 100 μM stock solution and stored in −20 °C in advance. After 24 h of treatment, 10 μL of MTT (5 mg/mL in PBS) was then added directly to all wells and the plates were placed in the dark at 37 °C for 3 h incubation. Cell viability was measured by observing absorbance at 570 nm on a SpectraMax^190 microplate reader (Molecular Devices, Silicon Valley, CA, USA). IC50 values were calculated using Microsoft Excel software (version 2010, Redmond, WA, USA). Taxol was used as a positive control.

[2] = test system: human ovarian cancer (A2780) cell line; assay: Cytotoxicity assay (MTT), A2780; format: cell-based; conditions: 24 h treatment
Experimental: as §1

[3] = test system: human non-small-cell lung carcinoma (NCI-H1650) cell line; assay: Cytotoxicity assay (MTT), NCI-H1650; format: cell-based; conditions: for IC50: Homo sapiens, NCI-H1650, MTT, 24 h treatment
Experimental: as §1

[4] = test system: LPS-induced NO production in RAW264.7 macrophages; assay: LPS-induced nitric oxide (NO) production in RAW264.7 macrophages (Griess); format: cell-based; conditions: Mus musculus, LPS 1 μg/mL, 18 h, read-out: IC50 against LPS-induced NO production
Experimental: The RAW 264.7 macrophages were cultured in The RPMI 1640 medium (Hyclone, Logan, UT, USA) containing 10% FBS. The compounds were dissolved in DMSO and further diluted in medium to produce different concentrations. The cell mixture and culture medium were dispensed into 96-well plates (2 × 10^5 cells/well) and maintained at 37 °C under 5% CO2. After preincubation for 24 h, serial dilutions of the test compounds were added into the cells, up to the maximum concentration 25 μM, then added with LPS to a concentration 1 μg/mL and continued to incubate for 18 h. The amount of NO was assessed by determined the nitrite concentration in the cultured RAW264.7 macrophage supernatants with Griess reagent. Aliqueots of supernatants (100 μL) were incubated, in sequence, with 50 μL 1% sulphanilamide and 50 μL 1% naphthylethylenediamine in 2.5% phosphoric acid solution. The sample absorbance was measured at 570 nm by a 2104 Envision Multilabel Plate Reader (PerkinElmer, Inc., Waltham, MA, USA). Dexamethasone was used as a positive control.

[5] = biological target: T1, human protein tyrosine phosphatase 1B (GST-hPTP1B) (Homo sapiens, UniProt P18031); assay: PTP1B inhibition assay (p-NPP dephosphorylation); format: biochemical; conditions: 3 mM p-NPP, HEPES pH 7.0, 30 °C, 10 min; read-out: IC50 against PTP1B
T1 construct: GST; made in house
T1 sequence (P18031 1-435): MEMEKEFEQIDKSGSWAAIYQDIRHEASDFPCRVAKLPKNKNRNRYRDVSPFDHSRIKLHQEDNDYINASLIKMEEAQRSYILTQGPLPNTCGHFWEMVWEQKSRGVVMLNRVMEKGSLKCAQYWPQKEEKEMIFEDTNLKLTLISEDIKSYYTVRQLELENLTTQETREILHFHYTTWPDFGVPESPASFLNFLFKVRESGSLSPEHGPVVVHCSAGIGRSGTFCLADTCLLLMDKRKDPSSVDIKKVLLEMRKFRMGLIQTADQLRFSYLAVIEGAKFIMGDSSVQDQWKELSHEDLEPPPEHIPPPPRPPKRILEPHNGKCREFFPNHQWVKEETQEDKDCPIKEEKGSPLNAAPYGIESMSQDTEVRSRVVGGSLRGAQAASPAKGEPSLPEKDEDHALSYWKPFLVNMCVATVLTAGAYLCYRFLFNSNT
Experimental: The dephosphorylation of para-nitrophenyl phosphate (p-NPP) was catalyzed to para-nitrophenol by PTP1B. Enzyme activity involving an end-point assay, which intensified the yellow color, was measured at a wavelength of 405 nm. All compounds were dissolved in 100% dimethyl sulfoxide (DMSO), and reactions, including controls, were performed at a final concentration of 10% DMSO. Selected compounds were first evaluated for their ability to inhibit the PTPase reaction at a 10 μM concentration at 30 °C for 10 min, in a reaction system with 3 mM p-NPP in HEPES assay buffer (pH 7.0). The reaction was initiated by addition of the enzyme and quenched by addition of 1 M NaOH. The amount of the produced p-nitrophenol was determined at 405 nm using a microplate spectrophotometer (uQuant, Bio-Tek, Winooski, VT, USA). IC50 values were evaluated using a sigmoidal dose-response (variable slope) curve-fitting program of GraphPad Prism 4.0 software (La Jolla, CA, USA). Oleanolic acid was used as a positive control.

pIC50 [4]	pIC50 [5]	SMILES	IC50 [1] [µM]	IC50 [2] [µM]	IC50 [3] [µM]	folds more active than 8, 9, 13, and 14 ([3]; NCI-H1650 cell line, versus 8, 9, 13 and 14)
–	–	COc1cc(CC2COC(c3cc(OC)c(O)c(OC)c3)C2CO)ccc1O (single isomer, unassigned; (+)) [Compound 16, (+)-5′-methoxylariciresinol]	> 20	> 20	> 20	–
–	–	CC(=O)O[C@H]1C(=O)[C@@]2(C)[C@H]([C@H](OC(=O)c3ccccc3)[C@]3(O)C[C@H](OC(=O)[C@H](O)[C@@H](NC(=O)c4ccccc4)c4ccccc4)C(C)=C1C3(C)C)[C@]1(OC(C)=O)CO[C@@H]1C[C@@H]2O [Taxol, reference compound]	0.005	0.02	1.28	–
4.30	–	COc1cc(/C=C/C(=O)OC[C@@H](Cc2cc(OC)c(O)c(OC)c2)[C@@H](CO)Cc2cc(OC)c(O)c(OC)c2)ccc1O [Compound 5, (+)-(8S,8′S)-9-O-(E)-feruloyl-5,5′-dimethoxysecoisolariciresinol]	> 20	> 20	> 20	–
–	–	COc1cc(C[C@H]2C(=O)OC[C@@H]2Cc2ccc(OC)c(OC)c2)ccc1O [Compound 17, arctigenin]	3.25	0.28	> 20	–
–	–	COc1cc([C@@H]2c3c(cc(OC)c(O)c3OC)C=C(C(=O)NCCc3ccc(O)cc3)[C@H]2C(=O)NCCc2ccc(O)cc2)cc(OC)c1O [Compound 10, 1,2-dihydro-6,8-dimethoxy-7-hydroxy-1-(3,5-dimethoxy-4-hydroxyphenyl)-N^1,N^2-bis-[2-(4-hydroxypeenyl)ethyl]-2,3-naphthalene dicarboxamide]	> 20	> 20	> 20	–
–	–	COc1cc(CCNC(=O)C2=Cc3cc(OC)c(O)c(OC)c3[C@@H](c3cc(OC)c(O)c(OC)c3)[C@@H]2C(=O)NCCc2ccc(O)cc2)ccc1O [Compound 3, (−)-(7′R,8′S)-N^1-[2-(4-hydroxy-3-methoxyphenyl)-ethyl]-N^2-[2-(4-hydroxyphenyl)-ethyl]-4,4′-dihydroxy-3,5,3′,5′-tetramethoxy-2,7′-cyclolignan-7-en-9,9′-diamide]	> 20	> 20	> 20	–
–	–	COc1cc(CC2COC(c3cc(OC)c(O)c(OC)c3)C2CO)cc(OC)c1O (single isomer, unassigned; (+)) [Compound 15, (+)-5,5′-dimethoxylariciresinol]	> 20	> 20	> 20	–
–	–	COc1cc(C=CC(=O)OCC2C(Cc3cc(OC)c(O)c(OC)c3)COC2c2cc(OC)c(O)c(OC)c2)ccc1O (single isomer, unassigned; (+)) [Compound 13, (+)-9′-O-(E)-feruloyl-5,5′-dimethoxylariciresinol]	> 20	> 20	9.68	–
–	–	COc1cc(C=C2C(=O)OCC2Cc2ccc(OC)c(OC)c2)ccc1O (stereo not shown) [Compound 19, (7E,8R′)-didehydroarctigenin]	18.5	12.8	> 20	–
4.23	–	COc1cc(/C=C/C(=O)OC[C@@H](Cc2ccc(O)c(OC)c2)[C@@H](CO)Cc2ccc(O)c(OC)c2)ccc1O [Compound 6, (+)-(8S,8′S)-9-O-(E)-feruloyl-secoisolariciresinol]	> 20	> 20	> 20	–
–	–	COc1cc(C[C@H]2COC(=O)[C@@H]2Cc2ccc(O)c(OC)c2)ccc1O [Compound 18, matairesinol]	14	1.53	> 20	–
–	–	COc1cc(C=CC(=O)OCC2C(C(=O)c3cc(OC)c(O)c(OC)c3)COC2c2cc(OC)c(O)c(OC)c2)ccc1O (single isomer, unassigned; (+)) [Compound 7]	> 20	> 20	2.47	4-6 folds
5.02	–	C[C@@H]1C[C@H]2[C@@H]3CCC4=CC(=O)C=C[C@]4(C)[C@@]3(F)[C@@H](O)C[C@]2(C)[C@@]1(O)C(=O)CO [Dexamethasone, reference compound]	–	–	–	–
4.18	–	COc1cc(/C=C/C(=O)OC[C@@H](Cc2ccc(O)c(OC)c2)[C@@H](COC(=O)/C=C/c2ccc(O)c(OC)c2)Cc2ccc(O)c(OC)c2)ccc1O [Compound 12, (+)-9,9′-O-di-(E)-feruloyl-secoisolariciresinol]	> 20	> 20	> 20	–
–	–	COc1cc(C=CC(=O)OCC2C(Cc3cc(OC)c(O)c(OC)c3)COC2c2cc(OC)c(O)c(OC)c2)cc(OC)c1O (single isomer, unassigned; (+)) [Compound 8]	> 20	> 20	11.2	–
–	–	COc1cc(C=CC(=O)OCC2C(Cc3ccc(O)c(OC)c3)COC2c2cc(OC)c(O)c(OC)c2)ccc1O (single isomer, unassigned; (+)) [Compound 14, (+)-9′-O-(E)-feruloyl-5′-methoxylariciresinol]	> 20	> 20	10.5	–
–	–	COc1cc(CCNC(=O)[C@@H]2C(C(=O)NCCc3ccc(O)cc3)=Cc3cc(OC)c(O)c(OC)c3[C@H]2c2cc(OC)c(O)c(OC)c2)ccc1O [Compound 2, (−)-(7′R,8′S)-N^1-[2-(4-hydroxyphenyl)-ethyl]-N^2-[2-(4-hydroxy-3-methoxyphenyl)-ethyl]-4,4′-dihydroxy-3,5,3′,5′-tetramethoxy-2,7′-cyclolignan-7-en-9,9′-diamide]	> 20	> 20	> 20	–
–	–	COc1cc([C@@H]2c3c(cc(OC)c(O)c3OC)C=C(C(=O)NCCc3ccc(O)cc3)[C@H]2CO)cc(OC)c1O [Compound 1, (−)-(7′R,8′S)-N-[2-(4-hydroxyphenyl)-ethyl]-4,4′,9′-trihydroxy-3,5,3′,5′-tetramethoxy-2,7′-cyclolignan-7-en-9-amide]	> 20	> 20	> 20	–
4.32	4.87	COc1cc(/C=C/C(=O)OC[C@@H](Cc2cc(OC)c(O)c(OC)c2)[C@@H](COC(=O)/C=C/c2ccc(O)c(OC)c2)Cc2cc(OC)c(O)c(OC)c2)ccc1O [Compound 11, (+)-9,9′-O-di-(E)-feruloyl-5,5′-dimethoxy secoisolariciresinol]	> 20	> 20	> 20	–
–	–	COc1cc(C=CC(=O)OCC2C(c3cc(OC)c(O)c(OC)c3)OCC2C(OC)c2cc(OC)c(O)c(OC)c2)ccc1O (stereo not shown) [Compound 9, 9′-O-(E)-Feruloyl-5,7,5′-trimethoxylariciresinol]	> 20	> 20	13.2	–
